Results on 14 molecules are retold here after patent US8013153B2, “Substituted pyrimidine kinase inhibitors” (Janssen Pharmaceutica, N.V., priority 2006, dated 2011).

For test [1], the target named is T1, HER2 cytoplasmic domain (Homo sapiens, UniProt P04626).
T1 construct: polyhistidine (N)
In words: HER2 Kinase Screening Assay. It counts as biochemical. Conditions: > means no observed 50% inhibition at the indicated test concentration; ~ means approximately 50% inhibition at that concentration. Here is the method:
(§1) A kinase reaction mixture was prepared containing 50 mM Tris-HCl pH=8, 10 mM MgCl2, 0.1 mM Na3PO4, 1 mM DTT, 10 μM ATP, 0.025 μM biotinylated histone-H1 peptide substrate and 0.2 μCuries per well ^33P-γ-ATP (2000-3000 Ci/mmol). 70 μL of the kinase reaction mixture was dispensed into the well of a streptavidin coated FlashPlate™ (Cat. # SMP103, NEN, Boston, Mass.). Then 1 μL of test compound stock in 100% DMSO was added to the wells resulting in a final concentration of 1% DMSO in the reaction with a 100 μL final reaction volume.
(§2) The CDK1:Cyclin-B protein was diluted in 50 mM Tris-HCl pH=8.0, 0.1% BSA at a concentration of 1 ng per μL and 30 μL (30 ng enzyme per test well) was added to each well to initiate the reaction. The reaction was incubated for one hour at 30° C. At the end of the 1 hour incubation, the reaction was terminated by aspirating the mixture from the plate and washing the wells twice with PBS containing 100 mM EDTA. The histone-H1 biotinylated peptide substrate became immobilized on the Flashplate™ and the incorporation of ^33P-γ-ATP was measured by reading the plate on a scintillation counter. Inhibition of the enzymatic activity of CDK1 was measured by observing a reduced amount of ^33P-γ-ATP incorporated into the immobilized peptide.
The HER2 kinase assay was carried out using the CDK kinase assay procedure except that the enzyme was replaced with a HER2 construct containing a polyhistidine tag at the N-terminus followed by 24 additional amino acids and the HER2 cytoplasmic domain beginning at amino acid 676 (Accession #M11730) to the end.

In test [2] the target is T2, CDK1:Cyclin-B (Homo sapiens, UniProt P06493).
T2 construct: purchased New England Biolabs, Beverly, Mass; 6020; host or cells: insect cells
Put plainly: CDK1 Screening Assay. It counts as biochemical. Here is the method: as §1, §2
The CDK1 used was isolated from insect cells expressing both the human CDK1 catalytic subunit and its positive regulatory subunit cyclin B (New England Biolabs, Beverly, Mass., Cat. #6020).

Test [3] concerns HCT-116 colon carcinoma. In words: Inhibition of in vitro cell proliferation (HCT116).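 Further: cells exposed to compound for 24 h, then 14C-thymidine added for a further 24 h and its uptake into DNA counted by scintillation, DMSO-only wells as control.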 It counts as cell-based, human. Conditions: Homo sapiens, HCT-116, 14C-thymidine incorporation.
For test [4], the target named is T3, rat VEGF-R2 kinase domain (Rattus norvegicus, UniProt O08775).
T3 construct: amino acids 786-1343 of the rat VEGF-R2 kinase domain; polyhistidine (N)
Put plainly: VEGF-R2 Screening Assay. It counts as biochemical.

Test [5] deals with A375 malignant melanoma. Put plainly: Inhibition of in vitro cell proliferation (A375).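 Further: cells plated for 24 h, given compound for 24 h, then labelled with 14C-thymidine for another 24 h, with DMSO-only wells as control and counts read by scintillation.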 Conditions: Homo sapiens, A-375, 14C-thymidine incorporation. It counts as cell-based, human.
Test [6] deals with T4, murine Aurora-A (Mus musculus, UniProt P97477).
T4 construct: replaced with the full length protein encoding the murine Aurora-A; made in house; host or cells: sf9 insect cells
T4 sequence (P97477 1-395): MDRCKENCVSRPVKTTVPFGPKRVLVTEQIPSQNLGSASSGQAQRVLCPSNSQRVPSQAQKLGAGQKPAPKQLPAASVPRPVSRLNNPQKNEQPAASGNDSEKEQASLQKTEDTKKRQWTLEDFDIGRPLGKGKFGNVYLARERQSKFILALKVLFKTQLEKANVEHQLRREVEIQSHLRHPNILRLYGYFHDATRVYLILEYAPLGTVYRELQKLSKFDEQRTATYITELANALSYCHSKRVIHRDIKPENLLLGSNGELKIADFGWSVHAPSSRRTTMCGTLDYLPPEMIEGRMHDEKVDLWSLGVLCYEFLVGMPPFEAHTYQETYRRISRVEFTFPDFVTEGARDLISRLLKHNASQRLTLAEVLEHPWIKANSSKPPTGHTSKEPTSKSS
In words: Aurora-A Screening Assay. It counts as biochemical. As to the method:
as §1, §2
The Aurora-A kinase assay was carried out using the CDK kinase assay procedure except that the enzyme was replaced with the full length protein encoding the murine Aurora-A (Accession #GB BC014711) expressed and purified from sf9 insect cells.

The subject of test [7] is HeLa cervical adenocarcinoma. In words: Inhibition of in vitro cell proliferation (HeLa).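 Further: cells exposed to compound for 24 h, then labelled 24 h with methyl 14C-thymidine, with uptake into DNA counted by scintillation against DMSO-only control wells.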 Conditions: Homo sapiens, 14C-thymidine incorporation. It counts as cell-based, human.
Setting [8] is: > means no observed 50% inhibition at the indicated test concentration, ~ means approximately 50% inhibition at that concentration, read-out: IC50 VEGF-R2.

Molecules are shown by their SMILES. Like-named read-outs stand apart in the source and are kept apart here.

T2 sequence (P06493 whole entry): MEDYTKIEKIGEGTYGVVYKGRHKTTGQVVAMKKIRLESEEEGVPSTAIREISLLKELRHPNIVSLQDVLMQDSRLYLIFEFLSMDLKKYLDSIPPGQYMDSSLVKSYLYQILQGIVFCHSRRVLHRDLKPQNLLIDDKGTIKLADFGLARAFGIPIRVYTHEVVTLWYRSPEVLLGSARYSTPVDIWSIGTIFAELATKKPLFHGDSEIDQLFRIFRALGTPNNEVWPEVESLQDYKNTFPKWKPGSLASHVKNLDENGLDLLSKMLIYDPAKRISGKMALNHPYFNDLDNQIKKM
T2 sequence (P14635 whole entry partner): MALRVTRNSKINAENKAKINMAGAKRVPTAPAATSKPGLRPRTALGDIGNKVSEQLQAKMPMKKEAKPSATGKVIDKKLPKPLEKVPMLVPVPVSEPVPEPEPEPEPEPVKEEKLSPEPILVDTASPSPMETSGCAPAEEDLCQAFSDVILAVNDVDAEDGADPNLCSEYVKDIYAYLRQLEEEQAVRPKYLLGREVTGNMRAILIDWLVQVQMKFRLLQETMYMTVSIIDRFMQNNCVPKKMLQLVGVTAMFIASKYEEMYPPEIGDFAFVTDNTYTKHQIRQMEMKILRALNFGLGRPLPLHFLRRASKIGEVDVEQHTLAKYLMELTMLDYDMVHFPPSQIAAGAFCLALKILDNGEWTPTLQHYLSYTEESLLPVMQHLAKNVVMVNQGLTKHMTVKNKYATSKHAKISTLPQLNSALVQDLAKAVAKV
T3 sequence (O08775 786-1343): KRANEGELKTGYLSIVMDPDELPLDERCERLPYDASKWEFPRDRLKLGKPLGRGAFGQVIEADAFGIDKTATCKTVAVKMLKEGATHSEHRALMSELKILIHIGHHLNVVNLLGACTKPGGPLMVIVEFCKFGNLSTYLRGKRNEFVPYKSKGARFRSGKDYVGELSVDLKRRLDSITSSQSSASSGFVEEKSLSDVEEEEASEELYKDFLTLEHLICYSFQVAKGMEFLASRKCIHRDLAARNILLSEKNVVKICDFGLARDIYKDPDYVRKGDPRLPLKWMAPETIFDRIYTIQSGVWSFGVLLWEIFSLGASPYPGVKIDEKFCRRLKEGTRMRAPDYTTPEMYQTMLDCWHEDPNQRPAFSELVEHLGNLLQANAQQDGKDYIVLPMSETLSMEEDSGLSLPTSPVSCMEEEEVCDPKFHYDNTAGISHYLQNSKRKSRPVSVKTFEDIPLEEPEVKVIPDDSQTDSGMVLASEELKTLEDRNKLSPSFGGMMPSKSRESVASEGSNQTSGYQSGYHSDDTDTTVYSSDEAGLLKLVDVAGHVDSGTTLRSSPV
T1 sequence (P04626 676-1255 limits assumed): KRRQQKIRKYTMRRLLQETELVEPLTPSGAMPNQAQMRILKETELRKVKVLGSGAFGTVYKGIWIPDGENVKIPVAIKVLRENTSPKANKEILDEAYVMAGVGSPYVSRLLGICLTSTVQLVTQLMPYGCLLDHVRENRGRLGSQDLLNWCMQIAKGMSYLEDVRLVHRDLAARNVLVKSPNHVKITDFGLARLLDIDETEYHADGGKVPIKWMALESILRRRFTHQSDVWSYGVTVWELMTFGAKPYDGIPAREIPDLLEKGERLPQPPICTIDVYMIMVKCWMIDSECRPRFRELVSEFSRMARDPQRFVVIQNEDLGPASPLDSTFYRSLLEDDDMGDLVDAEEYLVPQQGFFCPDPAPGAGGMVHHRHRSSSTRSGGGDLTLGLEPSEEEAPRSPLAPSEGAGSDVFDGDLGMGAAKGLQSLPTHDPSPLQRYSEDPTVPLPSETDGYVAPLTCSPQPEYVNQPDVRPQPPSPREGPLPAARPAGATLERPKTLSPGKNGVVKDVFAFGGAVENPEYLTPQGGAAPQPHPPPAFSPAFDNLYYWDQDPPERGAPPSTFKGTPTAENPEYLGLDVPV

Consider `Cc1cc2c(F)c(Oc3ncnc(N)c3C=NOCCCN3CCCCC3)ccc2[nH]1` [Cpd 20, 4-amino-6-(4-fluoro-2-methyl-1H-indol-5-yloxy)-pyrimidine-5-carbaldehyde O-(3-piperidin-1-yl-propyl)-oxime], for which the IC50 in test [1] is 1.55 µM; in test [2] it was above 100 µM; in test [3] it was 2.78 µM; in test [4] (setting [8]) it was 0.037 µM; in test [5], 0.429 µM; in test [6], above 100 µM. Further, the IC50 in test [7] worked out at 0.715 µM.

On to `Cc1cc2c(F)c(Oc3ncnc(N)c3C=NOCCCN3CCNCC3)ccc2[nH]1` [Cpd 21, 4-amino-6-(4-fluoro-2-methyl-1H-indol-5-yloxy)-pyrimidine-5-carbaldehyde O-(3-piperazin-1-yl-propyl)-oxime], for which the IC50 in test [1] was 0.767 µM; in test [2], above 100 µM; in test [3], 68.1 µM; in test [4] (setting [8]) it was 0.036 µM; in test [5], 11.2 µM; in test [6], above 10 µM. This molecule gave an IC50 in test [7] of 24.5 µM.

As to `Cc1cc2c(F)c(Oc3ncnc(N)c3C=NOCCCCN3CCCCC3)ccc2[nH]1` [Cpd 24, 4-amino-6-(4-fluoro-2-methyl-1H-indol-5-yloxy)-pyrimidine-5-carbaldehyde O-(4-piperidin-1-yl-butyl)-oxime], the IC50 in test [1] is 0.282 µM; in test [2] it was above 100 µM; in test [3] it was above 100 µM; in test [4] (setting [8]), 0.085 µM; in test [5], above 100 µM; in test [6] it was above 100 µM. Besides, the IC50 in test [7] was above 100 µM.

With `Cc1cc2c(F)c(Oc3ncnc(N)c3C=NOCCCCN3CCCC3)ccc2[nH]1` [Cpd 25, 4-amino-6-(4-fluoro-2-methyl-1H-indol-5-yloxy)-pyrimidine-5-carbaldehyde O-(4-pyrrolidin-1-yl-butyl)-oxime], the IC50 in test [1] is 0.596 µM; in test [2] it was above 100 µM; in test [3] it was 0.1 µM; in test [4] (setting [8]), 0.13 µM; in test [5] it was above 100 µM; in test [6], above 10 µM. Moreover, in test [7], the IC50 was above 100 µM.

For `Cc1cc2c(F)c(Oc3ncnc(N)c3C=NOCCCCN3CCOCC3)ccc2[nH]1` [Cpd 26, 4-amino-6-(4-fluoro-2-methyl-1H-indol-5-yloxy)-pyrimidine-5-carbaldehyde O-(4-morpholin-4-yl-butyl)-oxime], the IC50 in test [1] is 1.02 µM; in test [2], above 100 µM; in test [3], above 1 µM; in test [4] (setting [8]), 0.048 µM; in test [5] it was above 100 µM; in test [6], above 100 µM. Moreover, the IC50 in test [7] was above 100 µM.

`Cc1cc2c(F)c(Oc3ncnc(N)c3C=NOCC3CC3)ccc2[nH]1` [Cpd 32, 4-amino-6-(4-fluoro-2-methyl-1H-indol-5-yloxy)-pyrimidine-5-carbaldehyde O-cyclopropylmethyl-oxime]: the IC50 was above 100 µM in test [1]; above 100 µM in test [2]; 0.333 µM in test [3]; 0.046 µM in test [4] (setting [8]); 0.07 µM in test [5]; above 100 µM in test [6]. Also, half-maximal inhibition in test [7] (IC50) required 0.324 µM.

`Cc1cc2c(F)c(Oc3ncnc(N)c3C=NOCCCCO)ccc2[nH]1` [Cpd 38, 4-amino-6-(4-fluoro-2-methyl-1H-indol-5-yloxy)-pyrimidine-5-carbaldehyde O-(4-hydroxy-butyl)-oxime]: the IC50 was 0.868 µM in test [1]; above 100 µM in test [2]; 2.34 µM in test [3]; 0.0577 µM in test [4] (setting [8]); 0.618 µM in test [5]; above 100 µM in test [6]. Besides, the half-maximal inhibitory concentration (IC50) in test [7] came out at 1.83 µM.

`CON=Cc1c(N)ncnc1Oc1ccc2c(c1)cc(C)n2C(=O)NCCO` [Cpd 39, 5-[6-amino-5-(methoxyimino-methyl)-pyrimidin-4-yloxy]-2-methyl-indole-1-carboxylic acid (2-hydroxy-ethyl)-amide]: the 50% inhibitory concentration (IC50) in test [1] is above 10 µM; in test [2], above 100 µM; in test [3] it was 3.43 µM; in test [4] (setting [8]) it was 0.108 µM; in test [5], 3.77 µM; in test [6] it was above 100 µM. This molecule also registered an IC50 in test [7] of 4.37 µM.

On to `CON=Cc1c(N)ncnc1Oc1ccc2c(c1)cc(C)n2C(=O)NCCCO` [Cpd 40, 5-[6-amino-5-(methoxyimino-methyl)-pyrimidin-4-yloxy]-2-methyl-indole-1-carboxylic acid (3-hydroxy-propyl)-amide], for which the IC50 in test [1] is above 10 µM; in test [2], 28 µM; in test [3], 4.54 µM; in test [4] (setting [8]) it was 0.0304 µM; in test [5], 2.59 µM; in test [6], above 100 µM. Also, in test [7], inhibition was half-maximal at 4.24 µM (IC50).

As to `CON=Cc1c(N)ncnc1Oc1ccc2c(c1)cc(C)n2C(=O)NCCCCN1CCCC1` [Cpd 42, 5-[6-amino-5-(methoxyimino-methyl)-pyrimidin-4-yloxy]-2-methyl-indole-1-carboxylic acid (4-pyrrolidin-1-yl-butyl)-amide], the IC50 in test [1] was above 10 µM; in test [2], above 100 µM; in test [3] it was above 10 µM; in test [4] (setting [8]) it was 0.0542 µM; in test [5], above 1 µM; in test [6] it was above 100 µM. Besides, the IC50 in test [7] was above 10 µM.

In the case of `CON=Cc1c(N)ncnc1Oc1ccc2c(c1)cc(C)n2C(=O)NCc1ccccc1` [Cpd 47, 5-[6-amino-5-(methoxyimino-methyl)-pyrimidin-4-yloxy]-2-methyl-indole-1-carboxylic acid benzylamide], the IC50 was above 100 µM in test [1]; above 100 µM in test [2]; above 10 µM in test [3]; above 100 µM in test [4] (setting [8]); above 10 µM in test [5]; above 100 µM in test [6]. Besides, the IC50 in test [7] is above 10 µM.

For `CCCNC(=O)n1c(C)cc2cc(Oc3ncnc(N)c3C=NOC)ccc21` [Cpd 48, 5-[6-amino-5-(methoxyimino-methyl)-pyrimidin-4-yloxy]-2-methyl-indole-1-carboxylic acid propylamide], the IC50 is above 10 µM in test [1]; above 100 µM in test [2]; 1.22 µM in test [3]; 0.0076 µM in test [4] (setting [8]); 1.15 µM in test [5]; above 100 µM in test [6]. Further, in test [7], the IC50 was 3.37 µM.

Turning to `CCCNC(=O)Nc1ccc(Oc2ncnc(N)c2C=NOC)cc1Cl` [Cpd 52, 1-{4-[6-amino-5-(methoxyimino-methyl)-pyrimidin-4-yloxy]-2-chloro-phenyl}-3-propyl-urea], the IC50 in test [1] is above 100 µM; in test [2], above 100 µM; in test [3], above 1 µM; in test [4] (IC50 VEGF-R2), 0.0275 µM; in test [5] it was above 1 µM; in test [6] it was above 100 µM. Besides, in test [7], the concentration for half-maximal inhibition (IC50) was above 1 µM.

On to `C=CCNC(=O)Nc1ccc(Oc2ncnc(N)c2C=NOC)cc1Cl` [Cpd 53, 1-allyl-3-{4-[6-amino-5-(methoxyimino-methyl)-pyrimidin-4-yloxy]-2-chloro-phenyl}-urea], for which the IC50 was above 10 µM in test [1]; above 100 µM in test [2]; above 1 µM in test [3]; 0.0191 µM in test [4] (setting [8]); above 1 µM in test [5]; above 100 µM in test [6]. Besides, in test [7], the IC50 is above 1 µM.
